Data from the NIST ThermoML archive (doi:10.1021/je300134c).

Assay: xn = mol fraction of the nth substance listed
Settings: 101 kPa, Liquid; for speed of sound: Sing-around technique in a fixed-path interferometer; for mass density: Vibrating tube method

CCCC[N+]1(C)CCCC1.O=S(=O)([O-])C(F)(F)F [1-butyl-1-methylpyrrolidinium trifluoromethanesulfonate] + O
Settings	mass density [kg/m3]	speed of sound [m/s]
278.15 K, x1 = 0.04996	1113.86	1595.9
278.15 K, x1 = 0.1	1163.55	1607.6
278.15 K, x1 = 0.1507	1190.82	1602.9
278.15 K, x1 = 0.1999	1208.34	1594.2
278.15 K, x1 = 0.2996	1229.14	1574.1
278.15 K, x1 = 0.3986	1240.96	1557
278.15 K, x1 = 0.4982	1248.7	1543.7
278.15 K, x1 = 0.5996	1254.27	1533.2
278.15 K, x1 = 0.6993	1258.35	1525.3
278.15 K, x1 = 0.8017	1261.86	1519.6
278.15 K, x1 = 0.8993	1264.45	1514
278.15 K, x1 = 1	1267.23	1513.5
288.15 K, x1 = 0.04996	1108.53	1594.7
288.15 K, x1 = 0.1	1156.83	1596.2
288.15 K, x1 = 0.1507	1183.59	1586
288.15 K, x1 = 0.1999	1200.79	1574.4
288.15 K, x1 = 0.2996	1221.49	1551.6
288.15 K, x1 = 0.3986	1233.35	1533.7
288.15 K, x1 = 0.4982	1241.17	1520
288.15 K, x1 = 0.5996	1246.83	1509.2
288.15 K, x1 = 0.6993	1251.01	1501
288.15 K, x1 = 0.8017	1254.33	1494.5
288.15 K, x1 = 0.8993	1256.9	1488.9
288.15 K, x1 = 1	1259.74	1486.1
298.15 K, x1 = 0.04996	1102.75	1590.4
298.15 K, x1 = 0.1	1149.85	1582.6
298.15 K, x1 = 0.1507	1176.19	1567.8
298.15 K, x1 = 0.1999	1193.14	1553.8
298.15 K, x1 = 0.2996	1213.77	1529
298.15 K, x1 = 0.3986	1225.71	1510.6
298.15 K, x1 = 0.4982	1233.63	1496.6
298.15 K, x1 = 0.5996	1239.37	1485.8
298.15 K, x1 = 0.6993	1243.63	1477.5
298.15 K, x1 = 0.8017	1247.06	1470.7
298.15 K, x1 = 0.8993	1249.64	1465
298.15 K, x1 = 1	1252.26	1461.4
308.15 K, x1 = 0.04996	1096.56	1583
308.15 K, x1 = 0.1	1142.62	1567
308.15 K, x1 = 0.1507	1168.56	1548.5
308.15 K, x1 = 0.1999	1185.37	1532.4
308.15 K, x1 = 0.2996	1206	1506.2
308.15 K, x1 = 0.3986	1218.04	1487.4
308.15 K, x1 = 0.4982	1226.07	1473.4
308.15 K, x1 = 0.5996	1231.92	1462.6
308.15 K, x1 = 0.6993	1236.25	1454.5
308.15 K, x1 = 0.8017	1239.76	1447.4
308.15 K, x1 = 0.8993	1242.39	1442
308.15 K, x1 = 1	1245.09	1437.8
318.15 K, x1 = 0.04996	1089.97	1572.9
318.15 K, x1 = 0.1	1135.15	1549.7
318.15 K, x1 = 0.1507	1160.74	1528
318.15 K, x1 = 0.1999	1177.49	1510.4
318.15 K, x1 = 0.2996	1198.16	1483.1
318.15 K, x1 = 0.3986	1210.34	1464.2
318.15 K, x1 = 0.4982	1218.51	1450.3
318.15 K, x1 = 0.5996	1224.48	1439.7
318.15 K, x1 = 0.6993	1228.9	1431.7
318.15 K, x1 = 0.8017	1232.49	1424.7
318.15 K, x1 = 0.8993	1235.16	1419.4
318.15 K, x1 = 1	1237.94	1414.9
328.15 K, x1 = 0.04996	1083.01	1560.3
328.15 K, x1 = 0.1	1127.45	1530.8
328.15 K, x1 = 0.1507	1152.76	1506.4
328.15 K, x1 = 0.1999	1169.5	1487.7
328.15 K, x1 = 0.2996	1190.27	1459.7
328.15 K, x1 = 0.3986	1202.62	1441
328.15 K, x1 = 0.4982	1210.95	1427.3
328.15 K, x1 = 0.5996	1217.05	1417
328.15 K, x1 = 0.6993	1221.57	1409.2
328.15 K, x1 = 0.8017	1225.24	1402.3
328.15 K, x1 = 0.8993	1227.97	1397.3
328.15 K, x1 = 1	1230.81	1392.7
338.15 K, x1 = 0.04996	1075.72	1545.4
338.15 K, x1 = 0.1	1119.53	1510.5
338.15 K, x1 = 0.1507	1144.53	1484
338.15 K, x1 = 0.1999	1161.26	1464.5
338.15 K, x1 = 0.2996	1182.3	1436.3
338.15 K, x1 = 0.3986	1194.89	1418
338.15 K, x1 = 0.4982	1203.39	1404.5
338.15 K, x1 = 0.5996	1209.64	1394.5
338.15 K, x1 = 0.6993	1214.26	1387
338.15 K, x1 = 0.8017	1218.03	1380.4
338.15 K, x1 = 0.8993	1220.81	1375.5
338.15 K, x1 = 1	1223.73	1371.1
